Experimental data taken from patent US20090036525A1, “Non-Natural Amino Acid Derivatives” (POXIMAGEN LTD., priority 2006, published 2009).
Where a SMILES comes first, the peptide text is derived from it. [ ]: non-standard residue; d: D form. Dopa = N[C@@H](Cc1ccc(O)c(O)c1)C(=O)O; Cha = N[C@@H](CC1CCCCC1)C(=O)O

Test system: 6-OHDA-lesioned rats
Experiment: Induction of rotational activity in 6-OHDA-lesioned rats
Assay type: in vivo, rat
Details: 63.4 μmole/kg, after benserazide 10 mg/kg, rotations over 4 hours

Compound | AUC activity (as % of AUC activity L-DOPA) (i.p.) | Peak activity (as % of maximal activity L-DOPA) (i.p.) | duration of activity (as % of duration of activity L-DOPA) (i.p.) | AUC activity (as % of AUC activity L-DOPA) (p.o.) | Peak activity (as % of maximal activity L-DOPA) (p.o.) | duration of activity (as % of duration of activity L-DOPA) (p.o.)
COC(=O)[C@H](Cc1ccc(OC(C)=O)c(OC(C)=O)c1)NC(=O)[C@@H](N)CC1CCCCC1.Cl [Example 2, (S)-2-Cyclohexyl-1-[(S)-2-(3,4-diacetoxyphenyl)-1-methoxycarbonyl-ethylcarbamoyl]-ethylammonium chloride] | 32 % of L-DOPA | 31 % of L-DOPA | 27 % of L-DOPA | – | – | –
COC(=O)[C@H](Cc1ccc(O)c(O)c1)NC(=O)[C@@H](N)[C@@H](C)c1ccccc1.Cl [Example 12, (1S,2S)-1-[(S)-2-(3,4-Dihydroxyphenyl)-1-methoxycarbonylethylcarbamoyl]-2-phenylpropylammonium chloride] | – | – | – | 50 % of L-DOPA | 62 % of L-DOPA | 46 % of L-DOPA
COC(=O)[C@H](Cc1ccc(O)c(O)c1)NC(=O)[C@@H](N)CC1CCCCC1.Cl [Example 1, (S)-2-Cyclohexyl-1-[(S)-2-(3,4-dihydroxyphenyl)-1-methoxycarbonylethyl-carbamoyl]-ethylammonium chloride] (H-[Cha]-[Dopa]-OMe) | – | – | – | 40 % of L-DOPA | 53 % of L-DOPA | 45 % of L-DOPA
COC(=O)[C@H](Cc1ccc(O)c(O)c1)NC(=O)[C@@H](N)[C@H](C)c1ccccc1.Cl [Example 13, (1S,2R)-1-[(S)-2-(3,4-Dihydroxyphenyl)-1-methoxycarbonyl-ethylcarbamoyl]-2-phenylpropylammonium; chloride] | – | – | – | 106 % of L-DOPA | 141 % of L-DOPA | 76 % of L-DOPA
